# Assay results: PMC8492656, “Machine learning-guided acyl-ACP reductase engineering for improved in vivo fatty alcohol production” (Nature Communications, 2021)
# Molecular target: T1, MA-ACR (parent A, A-AAAAAAAA) (Marinobacter nauticus, UniProt A1U3L3)
# T1 construct: gene Maqu_2507; full-length two-domain enzyme (N-terminal AHR, C-terminal ATR), pET28, E. coli host, purified by the same method as His-tagged E. coli ACP; reported elsewhere as tetrameric
# T1 sequence (A1U3L3 1-661): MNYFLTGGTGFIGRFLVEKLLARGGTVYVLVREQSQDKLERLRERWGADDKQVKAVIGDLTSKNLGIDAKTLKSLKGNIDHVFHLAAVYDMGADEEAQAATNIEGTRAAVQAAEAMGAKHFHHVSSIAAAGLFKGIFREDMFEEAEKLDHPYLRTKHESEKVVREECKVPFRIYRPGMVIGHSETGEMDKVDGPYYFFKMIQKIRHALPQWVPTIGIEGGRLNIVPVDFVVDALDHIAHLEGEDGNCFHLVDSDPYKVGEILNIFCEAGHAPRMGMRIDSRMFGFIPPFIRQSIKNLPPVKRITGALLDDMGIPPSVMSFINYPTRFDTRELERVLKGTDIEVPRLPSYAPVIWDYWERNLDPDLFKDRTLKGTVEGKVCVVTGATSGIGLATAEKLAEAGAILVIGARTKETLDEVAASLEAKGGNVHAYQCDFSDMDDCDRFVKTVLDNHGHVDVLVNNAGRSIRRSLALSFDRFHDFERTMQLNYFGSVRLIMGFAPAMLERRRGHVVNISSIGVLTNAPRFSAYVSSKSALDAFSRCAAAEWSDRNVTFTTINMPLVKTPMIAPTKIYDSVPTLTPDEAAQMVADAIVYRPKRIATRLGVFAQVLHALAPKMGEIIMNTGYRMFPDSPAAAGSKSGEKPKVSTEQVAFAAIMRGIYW
# Experiment: DTNB release assay, A412, 96-well plate
# Assay type: biochemical
# Settings: 200 µM NADPH, 1 µM enzyme, 250-252 µM DTNB, 20 mM Tris, 50 mM NaCl, pH 7
smiles,measurement,value
CCCCCCCCCCCCCCCC(=O)SCCNC(=O)CCNC(=O)[C@H](O)C(C)(C)COP(=O)(O)OP(=O)(O)OC[C@H]1O[C@@H](n2cnc3c(N)ncnc32)[C@H](O)[C@@H]1OP(=O)(O)O [palmitoyl-CoA],"DTNB release assay, A412, 96-well plate",ATR-83 has a lower activity than the parents on palmitoyl-CoA
